{
  "source": "patent US12528837B2",
  "about": "“Aryl substituted polymyxin derivatives” (priority 2018, dated 2026)",
  "key": {"[1]": {"assay": "Renal toxicity in mice, separate experiment Example 17 vs PMB", "type": "in vivo, mouse", "conditions": "sc 25 mg free base/kg, four doses at 8 hr intervals", "description": "(§1) After the fourth dose animals were transferred into individual metabolic cages and urine collected for 24 hours for determination of urinary biomarkers. After collecting urine mice were euthanised and the kidneys harvested for histopathology.\nIn a separate experiment Example 17 was compared with PMB."}, "A. baumannii NCTC13301 [2]": {"system": "A. baumannii NCTC13301", "assay": "Neutropenic murine lung model", "type": "in vivo", "description": "(§2) After rendering neutropenic (cyclophosphamide 200 mg/kg d-4, 150 mg/kg d-1), CD-1 mice (n=8) were inoculated intranasally with approx. 10^7 cfu per lung of A. baumannii NCTC13301. Mice were dosed SC with PMB sulphate (20 mg/kg) or appropriate doses of test compound (equivalent weight free base) at 2, 6 and 10 h post-infection. At 16 h post-infection mice were euthanised and lungs prepared for colony counts.\n(§3) In each case the decrease observed with PMB in the same experiment is shown in parentheses: […]"}, "[3]": {"system": "A. baumannii NCTC 13301 (OXA-23)", "type": "cell-based", "conditions": "OXA-23; alone", "description": "(§4) MIC values (μg/mL) were determined by broth microdilution under CLSI conditions."}, "[4]": {"system": "P. aeruginosa IHMA 517175", "type": "cell-based", "conditions": "alone", "description": "as §4"}, "E. coli CDF-1 (MCR-1)": {"system": "E. coli CDF-1 (MCR-1)", "type": "cell-based", "conditions": "MCR-1; alone", "description": "as §4"}, "A. baumannii IHMA 517303": {"system": "A. baumannii IHMA 517303", "type": "cell-based", "conditions": "alone", "description": "as §4"}, "[5]": {"system": "K. pneumoniae IHMA 580884", "type": "cell-based", "conditions": "alone", "description": "as §4"}, "[6]": {"system": "P. aeruginosa IHMA 644636", "type": "cell-based", "conditions": "alone", "description": "as §4"}, "E. coli IHMA 940398": {"system": "E. coli IHMA 940398", "type": "cell-based", "conditions": "alone", "description": "as §4"}, "[7]": {"system": "K. pneumoniae IHMA 520329 (SHV-12, KPC-2)", "type": "cell-based", "conditions": "SHV-12, KPC-2; alone", "description": "as §4"}, "P. aeruginosa ATCC 27853 [8]": {"system": "P. aeruginosa ATCC 27853", "type": "cell-based", "conditions": "alone", "description": "as §4"}, "[9]": {"system": "A. baumannii IHMA 851735 (OXA-23)", "type": "cell-based", "conditions": "OXA-23; alone", "description": "as §4"}, "[10]": {"assay": "Kidney drug level after subcutaneous dose in mouse", "type": "in vivo", "conditions": "mouse, in vivo, sc, 17.2 mg/kg", "how_it_was_run": "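Mice were euthanised four hours after subcutaneous dosing. Both kidneys were trimmed, weighed, snap-frozen, then homogenised with zirconium oxide beads. After centrifugation (13,000 rpm, 6 °C, 10 min), supernatants were analysed by LC-MS-MS.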"}, "K. pneumoniae ATCC 43816": {"system": "K. pneumoniae ATCC 43816", "assay": "Neutropenic murine thigh model", "type": "in vivo", "conditions": "CD-1 mice thigh, counts at 16 h, PMB in parentheses", "description": "After rendering neutropenic (cyclophosphamide 150 mg/kg d-4, 100 mg/kg d-1), CD-1 mice (n=5) were inoculated in each thigh with approx. 10^5 cfu of K. pneumoniae ATCC43816. Mice were dosed IV with appropriate doses of PMB sulphate or test compound (equivalent weight free base) at 2, 6 and 10 h post-infection. At 16 h post-infection mice were euthanised and thighs prepared for colony counts.\nas §3"}, "E. coli ATCC 25922": {"system": "E. coli ATCC 25922", "assay": "MIC alone and with rifampicin, broth microdilution CLSI", "type": "cell-based", "conditions": "alone", "description": "as §4"}, "K. pneumoniae ATCC 13882": {"system": "K. pneumoniae ATCC 13882", "assay": "MIC alone and with rifampicin, broth microdilution CLSI", "type": "cell-based", "conditions": "alone", "description": "as §4"}, "P. aeruginosa ATCC 27853 [11]": {"system": "P. aeruginosa ATCC 27853", "assay": "Neutropenic murine lung model", "type": "in vivo", "conditions": "CD-1 mice lung, counts at 16 h, PMB in parentheses", "description": "as §2, with “mg/kg d-1).” for “mg/kg d-1),”, “with 10^4-10^5” for “with approx. 10^7”, “of P. aeruginosa ATCC27853.” for “of A. baumannii NCTC13301.”, “with” for “with PMB sulphate (20 mg/kg) or”, “of PMB sulphate or” for “of”\nas §3"}, "[12]": {"system": "E. coli, K. pneumoniae, P. aeruginosa, A. baumannii strains", "assay": "Synergy with rifampicin across the MIC panel", "type": "cell-based", "conditions": "also against strains with reduced susceptibility to polymyxins", "description": "as §4"}, "[13]": {"assay": "Renal toxicity in mice, 25 mg/kg sc four doses at 8 hr intervals, biomarkers and histopathology", "type": "in vivo, mouse", "conditions": "mice (n=6), sc 25 mg free base/kg", "description": "as §1"}, "[14]": {"assay": "Renal toxicity in Cynomolgus monkey, iv infusion 7 days", "type": "in vivo", "description": "In a separate experiment male monkeys (n=3) were dosed with PMB for the same period at 4 mg/kg/dose. In both experiments control animals were dosed 3 times per day with saline.\nAt the end of the 7 day period blood was sampled and the serum levels of blood urea nitrogen and creatinine determined as indicators of renal damage.\nKidneys were harvested at the end of the 7 day dosing period and examined microscopically."}, "A. baumannii NCTC13301 [15]": {"system": "A. baumannii NCTC13301", "assay": "Neutropenic murine thigh model", "type": "in vivo", "conditions": "CD-1 mice thigh, IV 0.5 mg/kg at 2, 6, 10 h, counts at 16 h, PMB in parentheses, listed as PMB", "description": "After rendering neutropenic (cyclophosphamide 150 mg/kg d-4, 100 mg/kg d-1), CD-1 mice (n=5) were inoculated in each thigh with approx. 10^5 cfu of A. baumannii NCTC13301. […] At 16 h post-infection mice were euthanised and thighs prepared for colony counts.\nas §3"}, "[16]": {"conditions": "cynomolgus monkey, in vivo, 4 mg/kg"}},
  "note": "Several values for one entry are separate records, joined by “and”; a condition that tells them apart may be missing. Equal entries are not always repeated.",
  "data": [
    {"substance": "Polymyxin B [reference compound]", "values": [
      {"measurement": "Basophilic tubules (histopathology)", "setting": "[1]; animals per grade", "value": 4, "unit": "minimal/1 mild"},
      {"measurement": "Tubular degeneration/necrosis (histopathology)", "setting": "[1]; animals per grade", "value": 4, "unit": "normal/1 minimal"},
      {"measurement": "Albumin, elevation compared with vehicle control", "setting": "[1]; urine", "value": 29, "unit": "×"},
      {"measurement": "Cystatin C, elevation compared with vehicle control", "setting": "[1]; urine", "value": 2, "unit": "×"},
      {"measurement": "KIM-1, elevation compared with vehicle control", "setting": "[1]; urine", "value": 771, "unit": "×"},
      {"measurement": "Log drop in cfu Compared to Vehicle Control", "setting": "A. baumannii NCTC13301 [2]; CD-1 mice lung, SC 20 mg/kg at 2, 6, 10 h, counts at 16 h, PMB (20 mg/kg) in parentheses", "value": 0},
      {"measurement": "Efficacy in the model (in words)", "setting": "A. baumannii NCTC13301 [2]; neutropenic murine lung model, A. baumannii NCTC13301, 20 mg/kg SC (PMB: maximum tolerated dose)", "value": "not efficacious"},
      {"measurement": "MIC A. baumannii NCTC 13301", "setting": "[3]", "value": 0.25, "unit": "µg/mL"},
      {"measurement": "MIC P. aeruginosa IHMA 517175", "setting": "[4]", "value": 8, "unit": "µg/mL"},
      {"measurement": "MIC E. coli CDF-1", "setting": "E. coli CDF-1 (MCR-1)", "value": 4, "unit": "µg/mL"},
      {"measurement": "MIC A. baumannii IHMA 517303", "setting": "A. baumannii IHMA 517303", "value": ">64", "unit": "µg/mL"},
      {"measurement": "MIC K. pneumoniae IHMA 580884", "setting": "[5]", "value": 8, "unit": "µg/mL"},
      {"measurement": "MIC P. aeruginosa IHMA 644636", "setting": "[6]", "value": 32, "unit": "µg/mL"},
      {"measurement": "MIC E. coli IHMA 940398", "setting": "E. coli IHMA 940398", "value": 16, "unit": "µg/mL"},
      {"measurement": "MIC K. pneumoniae IHMA 520329", "setting": "[7]", "value": 64, "unit": "µg/mL"},
      {"measurement": "MIC P. aeruginosa ATCC 27853", "setting": "P. aeruginosa ATCC 27853 [8]", "value": 0.5, "unit": "µg/mL"},
      {"measurement": "MIC A. baumannii IHMA 851735", "setting": "[9]", "value": 8, "unit": "µg/mL"},
      {"measurement": "Drug Level in Kidney 4 h", "setting": "[10]", "value": 128, "unit": "µg/g kidney"},
      {"measurement": "Drug Level in Kidney 16 h", "setting": "[10]", "value": 18, "unit": "µg/g kidney"},
      {"measurement": "Log drop in cfu Compared to Vehicle Control", "setting": "K. pneumoniae ATCC 43816; IV 0.25 mg/kg at 2, 6, 10 h", "value": "0.2 (0.2)"},
      {"measurement": "Log drop in cfu Compared to Vehicle Control", "setting": "K. pneumoniae ATCC 43816; IV 1 mg/kg at 2, 6, 10 h", "value": 5.2},
      {"measurement": "Log drop in cfu Compared to Vehicle Control", "setting": "K. pneumoniae ATCC 43816; IV 2 mg/kg at 2, 6, 10 h", "value": 4.0},
      {"measurement": "Log drop in cfu Compared to Vehicle Control", "setting": "K. pneumoniae ATCC 43816; IV 4 mg/kg at 2, 6, 10 h", "value": 5.6},
      {"measurement": "Log drop in cfu Compared to Vehicle Control", "setting": "K. pneumoniae ATCC 43816; IV […] at 2, 6, 10 h", "value": 0.2},
      {"measurement": "MIC E. coli ATCC 25922", "setting": "E. coli ATCC 25922", "value": 0.25, "unit": "µg/mL"},
      {"measurement": "MIC K. pneumoniae ATCC 13882", "setting": "K. pneumoniae ATCC 13882", "value": 0.25, "unit": "µg/mL"},
      {"measurement": "Log drop in cfu Compared to Vehicle Control", "setting": "P. aeruginosa ATCC 27853 [11]; SC 5 mg/kg at 2, 6, 10 h", "value": "0 (0)"},
      {"measurement": "Log drop in cfu Compared to Vehicle Control", "setting": "P. aeruginosa ATCC 27853 [11]; SC 7.5 mg/kg at 2, 6, 10 h", "value": 1.0},
      {"measurement": "Log drop in cfu Compared to Vehicle Control", "setting": "P. aeruginosa ATCC 27853 [11]; SC 10 mg/kg at 2, 6, 10 h", "value": 0.7},
      {"measurement": "Synergy with rifampicin (in words)", "setting": "[12]", "value": "strong synergy with rifampicin"},
      {"measurement": "Kidney histopathology: signs of degeneration or regeneration", "setting": "[13]", "value": "all 6 animals treated with PMB showed minimal tubular regeneration"},
      {"measurement": "Kidney microscopy: tubular degeneration", "setting": "[14]; Cynomolgus monkey (n=3), 4 mg/kg/dose, 3 times per day, 7 days", "value": "2 showed mild tubular degeneration and 1 minimal"},
      {"measurement": "AUC0-8 hr, one dosing cycle on day 7", "setting": "[14]; [16]", "value": 117, "unit": "µg·h/mL"},
      {"measurement": "BUN elevation compared to control animals", "setting": "[14]; [16]", "value": 76, "unit": "%"},
      {"measurement": "Log drop in cfu Compared to Vehicle Control", "setting": "A. baumannii NCTC13301 [15]", "value": "4.2 and 4.1"}
    ]}
  ]
}
